Source: PMC9090415, “Discovery of small molecule inhibitors of Plasmodium falciparum apicoplast DNA polymerase” (Journal of Enzyme Inhibition and Medicinal Chemistry, 2022)
Where two headings read alike, the source gives them in different places.

Assays:
[1] = biological target: P. falciparum apicoplast DNA polymerase (Pf-apPOL) (Plasmodium falciparum, UniProt Q8ILY1); experiment: Fluorescence-based high-throughput DNA polymerase assay (molecular beacon), primary screen and dose-response; type: biochemical; conditions: for DNA Pol: 90 min, 10 µM;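 for % inhibition ApPOL 90': test concentration in µM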;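 for % inhibition apPOL 180': test concentration in µM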
Method in brief: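 Single-point screening used 10 µM compound with 20 nM polymerase, 20 nM hairpin substrate and 6 µM dNTPs for 90 min at 25 °C. Confirmatory titrations (2.5–80 µM) followed fluorescence at three times, and IC50 was derived from a fit including a cooperativity term n.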

[2] = test system: chloroquine resistant P. falciparum parasites (strain Dd2); experiment: Parasite growth inhibition assay in human red blood cells (flow cytometry, acridine orange); type: cell-based; conditions: Plasmodium falciparum, Erythrocyte
Procedure: The chloroquine resistant P. falciparum parasites (strain Dd2) were cultured in de-identified, IRB-exempt human red blood cells (RBCs) obtained from the American Red Cross and parasite cultures were maintained as described. Parasitaemia (percentage of total RBCs infected) was measured by flow cytometry on an Attune NxT (ThermoFisher) by nucleic-acid staining of cultured RBCs with phosphate-buffered saline (PBS) containing 0.8 µg ml^−1 acridine orange. We began by determining percent growth inhibition at single compound dose (20 µM) for the 102 non-toxic compounds. […] The experiments were initiated with a starting parasitaemia of ∼1% and parasitaemia was measured 72 and 96 h post compound addition. Growth was normalised to parasite cultures with carrier only (DMSO).
We tested the ability of the 102 compounds to kill P. falciparum parasites cultured in human red blood cells. Due to the number of compounds, we used a single inhibitor concentration of 20 µM and performed experiments in triplicate. […] These compounds were then tested in a dose-response format against chloroquine resistant P. falciparum parasites (Dd2) and the resulting data were fit to a sigmoidal growth inhibition curve to determine EC50 values (Figure 5, Table 2). […] Finally, to determine if the compounds were killing the parasites solely via apicoplast disruption, the dose-response curves were also performed with 1 mM isopentylpyrophosphate (IPP) in the growth media (Table 2). […] Very little is known regarding mitochondrial DNA replication in P. falciparum; however, signal sequence identification algorithms have predicted that the other bacterial A-family DNA polymerase residing in P. falciparum is targeted to the mitochondria (PF3D7_0625300)[29]. […] We are currently in the process of cloning and expressing this putative mitochondrial DNA polymerase to determine the effect of these compounds on its activity.

[3] = supplemental file 2, sheet IC50 nontoxic compounds, Pf-apPOL

P. falciparum apicoplast DNA polymerase (Pf-apPOL), sequence (Q8ILY1 entry or part of it): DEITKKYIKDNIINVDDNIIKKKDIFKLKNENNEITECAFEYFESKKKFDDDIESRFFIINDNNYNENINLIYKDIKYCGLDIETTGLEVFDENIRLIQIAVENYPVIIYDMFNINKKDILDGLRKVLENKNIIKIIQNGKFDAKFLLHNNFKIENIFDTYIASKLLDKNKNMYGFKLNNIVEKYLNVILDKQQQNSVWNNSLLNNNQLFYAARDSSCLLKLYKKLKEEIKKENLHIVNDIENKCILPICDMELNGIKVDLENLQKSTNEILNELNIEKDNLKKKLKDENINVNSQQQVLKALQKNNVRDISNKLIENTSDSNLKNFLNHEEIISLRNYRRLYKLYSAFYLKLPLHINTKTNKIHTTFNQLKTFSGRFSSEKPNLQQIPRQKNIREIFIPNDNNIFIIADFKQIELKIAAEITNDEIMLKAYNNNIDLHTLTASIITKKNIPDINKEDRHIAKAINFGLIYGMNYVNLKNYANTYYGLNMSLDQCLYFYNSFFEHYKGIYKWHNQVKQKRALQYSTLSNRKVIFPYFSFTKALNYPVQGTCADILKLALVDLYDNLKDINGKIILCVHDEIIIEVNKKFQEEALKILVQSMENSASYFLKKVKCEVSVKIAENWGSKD

Cn1nc(-c2nnc(-c3ccccc3F)o2)c2c1CCN(C(=O)c1ccccc1Cl)C2 [Molecule 34]
IC50 ([1]; read-out: IC50 Pf-apPOL, Table 2): 7.2 ± 0.9 µM
IC50 [1, 3]: 7.21 µM
EC50 ([2]; Dd2 parasites in human RBCs, dose-response, no IPP, read-out: EC50): 11.3 ± 0.9 µM
EC50 ([2]; Dd2 parasites, 1 mM isopentylpyrophosphate (IPP) in the growth media, read-out: EC50 + IPP): 10 ± 0.7 µM

COc1ccc(-c2cc(=O)c3cc(O)ccc3o2)cc1OC [KU0193655]
% inhibition Apo pol 10' ([1]; DRC-1, concentration 2.5): -0.1967%
% inhibition Apo pol 10' ([1]; DRC-1, concentration 5): 8.174%
% inhibition Apo pol 10' ([1]; DRC-1, concentration 10): 18.1231%
% inhibition Apo pol 10' ([1]; DRC-1, concentration 20): 34.6118%
% inhibition Apo pol 10' ([1]; DRC-1, concentration 40): 62.4482%
% inhibition Apo pol 10' ([1]; DRC-1, concentration 80): 84.2826%
% inhibition Apol 90' ([1]; DRC-1, concentration 2.5): 2.413%
% inhibition Apol 90' ([1]; DRC-1, concentration 5): 7.049%
% inhibition Apol 90' ([1]; DRC-1, concentration 10): 17.1119%
% inhibition Apol 90' ([1]; DRC-1, concentration 20): 31.7706%
% inhibition Apol 90' ([1]; DRC-1, concentration 40): 60.6022%
% inhibition Apol 90' ([1]; DRC-1, concentration 80): 83.5295%
% inhibition apPOL 180' ([1]; DRC-1, concentration 2.5): 2.832%
% inhibition apPOL 180' ([1]; DRC-1, concentration 5): 6.576%
% inhibition apPOL 180' ([1]; DRC-1, concentration 10): 16.442%
% inhibition apPOL 180' ([1]; DRC-1, concentration 20): 31.1115%
% inhibition apPOL 180' ([1]; DRC-1, concentration 40): 58.5037%
% inhibition apPOL 180' ([1]; DRC-1, concentration 80): 84.0263%
% inhibition Apo pol 5' ([1]; DRC-2, concentration 2.5): -0.529%
% inhibition Apo pol 5' ([1]; DRC-2, concentration 5): 0.718%
% inhibition Apo pol 5' ([1]; DRC-2, concentration 10): 15%
% inhibition Apo pol 5' ([1]; DRC-2, concentration 20): 23%
% inhibition Apo pol 5' ([1]; DRC-2, concentration 40): 39%
% inhibition Apo pol 5' ([1]; DRC-2, concentration 80): 47%
% inhibition Apol 40' ([1]; DRC-2, concentration 2.5): 1.36%
% inhibition Apol 40' ([1]; DRC-2, concentration 5): 3.64%
% inhibition Apol 40' ([1]; DRC-2, concentration 10): 19%
% inhibition Apol 40' ([1]; DRC-2, concentration 20): 29%
% inhibition Apol 40' ([1]; DRC-2, concentration 40): 49%
% inhibition Apol 40' ([1]; DRC-2, concentration 80): 61%
% inhibition ApPOL 90' ([1]; DRC-2, concentration 2.5): 0.778%
% inhibition ApPOL 90' ([1]; DRC-2, concentration 5): 6%
% inhibition ApPOL 90' ([1]; DRC-2, concentration 10): 20%
% inhibition ApPOL 90' ([1]; DRC-2, concentration 20): 32%
% inhibition ApPOL 90' ([1]; DRC-2, concentration 40): 53%
% inhibition ApPOL 90' ([1]; DRC-2, concentration 80): 65%
% inhibition apPOL 180' ([1]; DRC-2, concentration 2.5): -1.88%
% inhibition apPOL 180' ([1]; DRC-2, concentration 5): 5%
% inhibition apPOL 180' ([1]; DRC-2, concentration 10): 21%
% inhibition apPOL 180' ([1]; DRC-2, concentration 20): 34%
% inhibition apPOL 180' ([1]; DRC-2, concentration 40): 56%
% inhibition apPOL 180' ([1]; DRC-2, concentration 80): 68%
DNA Pol ([1]; primary screen value by plate and well): 27
DNA Pol ([1]; primary screen value of the 186 hits, unit not given): 27

CCOc1cccc2cc(C(=O)Nc3nnc(-c4ccno4)o3)oc12 [Molecule 28]
IC50 [1, 3]: 7.04 µM

Cc1ccc(CNC(=O)c2cnn3c(O)cc(CSc4ccc(Cl)cc4)nc23)cc1 [Molecule 99, Cc1ccc(cc1)CNC(=O)c1cnn2c1nc(CSc1ccc(cc1)Cl)cc2O]
DNA Pol ([1]; 'DNA Pol' of the 186 hits list (screen value)): 67
% inhibition Apo pol 10' ([1]; DRC-1, conc 2.5): 17.7402%
% inhibition Apo pol 10' ([1]; DRC-1, conc 5): 14.3%
% inhibition Apo pol 10' ([1]; DRC-1, conc 10): 59.9515%
% inhibition Apo pol 10' ([1]; DRC-1, conc 20): 87.9776%
% inhibition Apo pol 10' ([1]; DRC-1, conc 40): 95.4401%
% inhibition Apo pol 10' ([1]; DRC-1, conc 80): 98.3006%
% inhibition Apol 90' ([1]; DRC-1, conc 2.5): 16.0319%
% inhibition Apol 90' ([1]; DRC-1, conc 5): 10.3916%
% inhibition Apol 90' ([1]; DRC-1, conc 10): 57.1077%
% inhibition Apol 90' ([1]; DRC-1, conc 20): 85.3091%
% inhibition Apol 90' ([1]; DRC-1, conc 40): 92.0772%
% inhibition Apol 90' ([1]; DRC-1, conc 80): 96.0616%
% inhibition apPOL 180' ([1]; DRC-1, conc 2.5): 7.151%
% inhibition apPOL 180' ([1]; DRC-1, conc 5): 1.596%
% inhibition apPOL 180' ([1]; DRC-1, conc 10): 45.1863%
% inhibition apPOL 180' ([1]; DRC-1, conc 20): 80.2247%
% inhibition apPOL 180' ([1]; DRC-1, conc 40): 89.0926%
% inhibition apPOL 180' ([1]; DRC-1, conc 80): 94.6304%
% inhibition Apo pol 5' ([1]; DRC-2, conc 2.5): 29%
% inhibition Apo pol 5' ([1]; DRC-2, conc 5): 42%
% inhibition Apo pol 5' ([1]; DRC-2, conc 10): 44%
% inhibition Apo pol 5' ([1]; DRC-2, conc 20): 58%
% inhibition Apo pol 5' ([1]; DRC-2, conc 40): 67%
% inhibition Apo pol 5' ([1]; DRC-2, conc 80): 68%
% inhibition Apo pol 5' ([1]; DRC-2, concentration 80): 68%
% inhibition Apol 40' ([1]; DRC-2, conc 2.5): 32%
% inhibition Apol 40' ([1]; DRC-2, conc 5): 49%
% inhibition Apol 40' ([1]; DRC-2, conc 10): 50%
% inhibition Apol 40' ([1]; DRC-2, conc 20): 68%
% inhibition Apol 40' ([1]; DRC-2, conc 40): 78%
% inhibition Apol 40' ([1]; DRC-2, conc 80): 81%
% inhibition Apol 40' ([1]; DRC-2, concentration 5): 49%
% inhibition Apol 40' ([1]; DRC-2, concentration 20): 68%
% inhibition ApPOL 90' ([1]; DRC-2, conc 2.5): 31%
% inhibition ApPOL 90' ([1]; DRC-2, conc 5): 49%
% inhibition ApPOL 90' ([1]; DRC-2, conc 10): 49%
% inhibition ApPOL 90' ([1]; DRC-2, conc 20): 69%
% inhibition ApPOL 90' ([1]; DRC-2, conc 40): 80%
% inhibition ApPOL 90' ([1]; DRC-2, conc 80): 84%
% inhibition ApPOL 90' ([1]; DRC-2, concentration 5): 49%
% inhibition ApPOL 90' ([1]; DRC-2, concentration 10): 49%
% inhibition ApPOL 90' ([1]; DRC-2, concentration 40): 80%
% inhibition apPOL 180' ([1]; DRC-2, conc 2.5): 25%
% inhibition apPOL 180' ([1]; DRC-2, conc 5): 40%
% inhibition apPOL 180' ([1]; DRC-2, conc 10): 41%
% inhibition apPOL 180' ([1]; DRC-2, conc 20): 66%
% inhibition apPOL 180' ([1]; DRC-2, conc 40): 80%
% inhibition apPOL 180' ([1]; DRC-2, conc 80): 86%
% inhibition apPOL 180' ([1]; DRC-2, concentration 40): 80%
DNA Pol ([1]; primary screen value, "DNA Pol"): 67
